The values that follow are results of earlier work, collected in patent US20240174947A1, “SURFACTANT COMPOSITIONS” (LANKEM LTD., priority 2021, published 2024).

The test system of this data set is reconstructed human epidermis (RhE). The following applies: for ET50: typical reference ET50 irritancy results for commonly used anionic and amphoteric surfactants; for Classification (expected in vivo irritancy): typical reference results for commonly used anionic and amphoteric surfactants, assigned from ET50.

In the case of `CCCCCCCCCCCCOS(=O)(=O)[O-].[Na+]` [Sodium lauryl sulfate], the “ET50” value is 9.37 h and the “Classification (expected in vivo irritancy)” value (from here on “Classification”) is “Moderate to mild (4-12)”.

Turning to Cocamidopropyl betaine, the “ET50” value was 29.4 h and the “Classification” value is “Non-irritating (>24)”.

Sodium laureth sulfate: the “ET50” value is 10.25 h and the “Classification” value is recorded as “Moderate to mild (4-12)”.
